Experimental data: patent publication US5576433A, “Fluorescent calcium indicators targeted to specific intracellular environments” (priority 1994, dated 1996)
Like-named read-outs stand apart in the source and are kept apart here.

Legend:
Tradescantia cells = details: within a short time; Hepler and Poenie, unpublished; cited from earlier work
PTK1 cells = details: cited from earlier work
[1] = test system: leakage and compartmentalization of fura-2; details: cited from earlier work
[2] = Spectral properties (absorbance and fluorescence with and without calcium); assay type: physicochemical
[3] = Calcium Kd of indicator in solution (Table 1); assay type: binding
Method: Calcium concentration was varied by adjusting ratio of CaEGTA/EGTA, so that free calcium varied from less than 1 nM to 1 mM. During the titration, temperature was held constant at 37° C. by a circulating water bath and Mg^++ levels were held at a fixed concentration of 1 mM. The excitation spectra were recorded between 300 and 400 nm by a Photon Technology Intl. Alpha Scan fluorometer where the excitation band width was set 6 nm and the emission was collected at 485 nm with 4 nm band width. […] 1M K2 CaEGTA was added directly to the solution to incrementally increase free calcium.
Calcium concentration was varied by adjusting ratio of CaEGTA/EGTA so that free calcium varied from less than 1 nM to 1 mM. During the titration, temperature was held constant at 37° C. by a circulating water bath and Mg++ levels were held at a fixed concentration of 1 mM. The excitation spectra were recorded between 300 and 400 nm by a Photon Technology Intl. Alpha Scan fluorometer where the excitation band width was set 6 nm and the emission was collected at 485 nm with 4 nm band width. […] 1M K2 CaEGTA was added directly to the solution to incrementally increase free calcium.
^c 100 mM KCl, 10 mM MOPS, pH 7.3, 20° C.

[4] = Magnesium Kd of indicator (Table 1); assay type: binding
Method: (§1) The excitation spectrum was recorded of 1 μM FFP18 in 2.5 ml of 130 mM KCl, 20 mM NaCl, 1 mM EGTA, 10 mM MOPS, pH 7.05 at 37° C. Then 25 μl of the solution was replaced with 25 μl of a solution containing 1 μM of that same dye, 111.2 mM MgC12, 12.2 mM EGTA, 10 mM MOPS, pH 7.05. This exchange yielded 1 mM free Mg^2+ 0.2 and 5 mM free Mg^2+ were obtained by successively exchanging 25.25 and 76.53 μl of the original solution with that of the latter solution containing the high concentration of Mg^2+. Emission was collected at 490 nm for fura-PE3 and 485 nm for FFP18, 4 nm band pass, and excitation 5 nm band pass.
as §1, with “1 μM PE3 in 2.5” for “1 μM FFP18 in 2.5”, “1 μM PE3, 111.2 mM” for “1 μM of that same dye, 111.2 mM”, “mM free Mg^2+. The 2 and 5” for “mM free Mg^2+ 0.2 and 5”, “free Mg^2+ concentrations were obtained” for “free Mg^2+ were obtained”

[5] = pH sensitivity of the calcium dissociation constant (Table 2); assay type: binding; details: 100 mM KCl, 10 mM MOPS
Description: The calcium dissociation constant of BAPTA-like calcium chelators and indicators is strongly affected by electron withdrawing effects of substituents on the BAPTA aromatic rings. The zwitterionic indicators described herein each contain an ionizable amine. The difference in electron withdrawing effects of the ionized and unionized amine could potentially communicate to BAPTA, creating a situation were the calcium affinity varied with pH. The design of PE3 and FFP18 was aimed at minimizing or eliminating this possibility by insulating the ionizable amine from the BAPTA ring with an aliphatic spacer containing one or more carbons. To test the effectiveness of this design, the calcium Kd of PE3 and FFP18 was measured at different pH values and compared to the values obtained for fura-2. […] Thus, the aim of the test was to determine whether the piperazine amino group gives the indicator increased pH sensitivity.
On page 36 of U.S. Pat. No. 4,603,209 (Tsien, et. al., 1987 Aug. 25), R2 is claimed as H, CH3, F, Cl, Br and […]. The R2 of PE3 and FFP18 is none of these claimed in that patent.

322 T lymphoma cells [6] = assay: Leakage of indicator from loaded cells / drift of apparent baseline calcium; assay type: cell-based; details: for apparent baseline intracellular calcium / dye leakage (in words): cells loaded with AM ester 1 hour, HBSS with 1% fetal bovine serum
Method: The T cell lymphoma cell line was loaded with 1 mM fura-2/AM or 1 mM PE3/AM for 30 minutes. Afterwards, an aliquot of dye loaded cells were placed in a cuvette and the fluorescence at 360 nm was recorded. Then, 5 mM Ni^2+ was added to quench any indicator that was outside the cells. The remainder of the loaded cell suspension was incubated for 1 hour at 37° C. Then a second aliquot was removed placed in a cuvette together with 5 mM Ni^2+ and fluorescence recorded. The difference in fluorescence of Ni^2+ treated cells between the 0 hour time point and the one hour time point represents indicator that leaked out of the cells into the extracellular medium over the 1 hour incubation period.
A quantity of 322 T-lymphoma cells were loaded with either 1 mM fura-2/AM or 1 mM PE3/AM for 1 hour, washed and resuspended in HBSS containing 1% fetal bovine serum. An aliquot of the loaded cell suspension was then placed in the cuvette of an Alpha Scan fluorometer and the fluorescence signal was recorded over time, as the cells were alternately excited at 340 nm and 380 nm. Calcium concentration was calculated from the 350/385 nm fluorescence ratio as described by Tsien, et al.(1985).
The T cell lymphoma cell line was loaded with 1 mM fura-2/AM or 1 nM PE3/AM as for Example 3. Afterwards, an aliquot of dye loaded cells were placed in a cuvette and the fluorescense at 360 nm was recorded. Then 5 nM Ni^2+ was added to quench any indicator that was outside the cells. The remainder of the loaded cell suspension was incubated for 1 hour at 37° C. Then a second aliquot was removed, placed in a cuvette together with 5 mM Ni^2+ and fluorescense recorded. The difference in fluorescense of Ni^2+ treated cells between 0 hour time point and the one hour time point represents indicator that leaked out of the cells into the extracellular medium over the 1 hour incubation period.

322 T lymphoma cells [7] = assay: Response of PE3 loaded cells to changes in intracellular calcium
[8] = read-out: apparent Kd for EGTA (assumed), cited from earlier work
[9] = test system: intracellular [Ca^2+ ] transients; assay: Recorded versus calculated calcium influx; assay type: cell-based; details: 4 cells
Method: FIG. 13 and FIG. 13A show the relationship between the intracellular [Ca^2+ ] transients over time for fura-2 and FFP18. In Example 7, the relationship between the intracellular [Ca^2+ ] transients reported by FFP18 or fura-2 and calculated [Ca^2+ ] transients representing calcium influx are shown as a function of time. The amount of Ca^2+ entering the cell across the membrane was calculated by integrating the inward current signal and converting the charge to moles of Ca^2+ per cell volume. This [Ca^2+ ] was divided by the average buffering capacity of these cells. […] The [Ca^2+ ] transients reported by the calcium indicators are shown by the more noisy traces.
The amount of Ca^2+ entering the cell across the membrane was calculated by integrating the inward current signal and converting the charge to moles of Ca^2+ per cell volume. This [Ca^2+ ] was divided by the average buffering capacity of these cells. […]
In 4 cells where the [Ca^2+ ] transient was recorded using fura-2, the magnitude of the recorded and calculated increases in [Ca^2+ ] were similar. The ratio of calcium influx measured using fura-2 to the calcium influx calculated from the integral of the current at the 200 msec time point gives a value of 0.9+/-0.05 [nM (recorded)/nM(calculated)].

muscle calcium = details: Hollingsworth and Baylor; cited from earlier work
[10] = test system: calcium transient during mitosis; details: Kao et al.; cited from earlier work
[11] = pH 6.9, 20° C., read-out: calcium Kd at pH 6.9
[12] = pH 7.3, 20° C., read-out: calcium Kd at pH 7.3

Cc1ccc(N(CC(=O)O)CC(=O)O)c(OCCOc2cc(-c3c4ccc(=[N+](C)C)cc-4oc4cc(N(C)C)ccc34)ccc2N(CC(=O)O)CC(=O)O)c1 [rhod-2]
transfer of cytosolic indicator to vacuole (in words) (Tradescantia cells): differed in this respect

CC(=O)OCOC(=O)CN(CC(=O)OCOC(C)=O)c1ccc(C)cc1OCCOc1cc2cc(-c3ncc(C(=O)OCOC(C)=O)o3)oc2cc1N(CC(=O)OCOC(C)=O)CC(=O)OCOC(C)=O [fura-2/AM]
loading in cells (in words) (PTK1 cells): consistent failure

CCCN(CCC)S(=O)(=O)c1ccc(C(=O)O)cc1 [probenecid]
effect on leakage and compartmentalization of fura-2 [1]: help reduce leakage and compartmentalization

O=C(O)CN1CCN(C(=O)CCc2ccc(N(CC(=O)O)CC(=O)O)c(OCCOc3cc4cc(-c5ncc(C(=O)O)o5)oc4cc3N(CC(=O)O)CC(=O)O)c2)CC1 [PE3]
Fluorescence Quantum Efficiency, Ca bound ([2]; Ca bound): 0.27
Peak Absorption Wavelength, Ca bound ([2]; Ca bound): 335 nm
Peak Emission Wavelength, Ca bound ([2]; Ca bound): 495 nm
Fluorescence Quantum Efficiency, Free anion ([2]; Free anion): .043
Peak Absorption Wavelength, Free anion ([2]; Free anion): 364 nm
Peak Emission Wavelength, Free anion ([2]; Free anion): 508 nm
absorbance, excitation, emission and quantum efficiency (in words) ([2]; presence and absence of calcium): all typical of fura-2
calcium binding affinity compared with fura-2 (in words) [3]: somewhat weaker than that of fura-2
Kd ([3]; 20° C., 100 mM KCl, 10 mM MOPS, pH 7.3 (footnote c)): 0.204 µM
Kd ([3]; 37° C., 130 mM KCl, 20 mM NaCl, 1 mM free MgCl2, MOPS, pH 7.05 (footnote a)): 0.209 µM
Kd ([4]; 20° C.): 4300 µM
Kd ([4]; 37° C.): 4000 µM
Kd [5, 11]: 0.269 ± 0.003 µM
Kd [5, 12]: 0.204 ± 0.004 µM
leakage and compartmentalization (in words) (322 T lymphoma cells [6]): resists leakage and compartmentalization
apparent baseline intracellular calcium / dye leakage (in words) (322 T lymphoma cells [6]): small change in baseline intracellular calcium levels reflects the lower leakage rate out of the cell
fluorescence response at 340 nm to increase in calcium (322 T lymphoma cells [7]; after Concanavalin A): fluorescense at 340 nm increases
fluorescence response at 380 nm to increase in calcium (322 T lymphoma cells [7]; after Concanavalin A): fluorescense at 380 nm decreases
fluorescence response at 340 nm and 380 nm (322 T lymphoma cells [7]; after ionomycin): even greater response of the indicator at 340 nm and 380 nm
fluorescence after reducing free calcium with EGTA (322 T lymphoma cells [7]; digitonin lysed, EGTA added): fluorescense at 380 nm now becomes much brighter while the fluorescense at 340 becomes dim

O=C(O)CN(CCOCCOCCN(CC(=O)O)CC(=O)O)CC(=O)O [EGTA, ethylene glycol bis(beta-aminoethyl ether)N,N,N'N'tetraacetic acid]
Kd ([8]; pH 6.9, 20° C.): 0.594 µM
Kd ([8]; pH 7, 20° C.): 0.0954 µM

Cc1ccc(N(CC(=O)O)CC(=O)O)c(OCCOc2cc3cc(-c4ncc(C(=O)O)o4)oc3cc2N(CC(=O)O)CC(=O)O)c1 [fura-2]
Kd [5, 11]: 0.216 ± 0.004 µM
Kd [5, 12]: 0.161 ± 0.002 µM
apparent baseline intracellular calcium / dye leakage (in words) (322 T lymphoma cells [6]): continuous increase in apparent intracellular calcium levels
magnitude of recorded versus calculated increase in [Ca^2+ ] (in words) [9]: similar
ratio of calcium influx recorded by indicator to calcium influx calculated ([9]; calculated from integral of the current at the 200 msec time point (time point stated for fura-2)): 0.9+/-0.05 nM (recorded)/nM(calculated)
transfer of cytosolic indicator to vacuole (in words) (Tradescantia cells): virtually all of the cytosolic indicator was transferred to the vacuole
ability to follow rapid changes in muscle calcium (muscle calcium): not fast enough to follow rapid changes in muscle calcium and was unable to track calcium levels at their peak
detection of calcium transient during mitosis [10]: seldom seen

O=C1C(CC[S+]([O-])c2ccccc2)C(=O)N(c2ccccc2)N1c1ccccc1 (stereo not shown) [sulfinpyrazone]
effect on leakage and compartmentalization of fura-2 [1]: help reduce leakage and compartmentalization
